In patent US20130143965A1, “MICROBI[…] AND STABLE SOLUTIONS OF GAMMA-HYDRO[…] FOR THE TREATMENT OF NARCOLEPSY” (Jazz Pharmaceuticals, Inc., priority 1998, published 2013):
“Also recorded” adds a separate entry of the source. Read-outs that look alike come from different tables or passages of the source.

Assays:
[1] = Solubility of sodium oxybate (GHB) in aqueous solution versus pH; details: for State of 1000 mg/cc solution: pH unadjusted
[2] = alcohol dependent patients, cited from earlier work
[3] = Safety assessment in the pharmacokinetic study (adverse experiences, physical examination); format: in vivo, human
Experimental: Follow-up occurred within 48 h after the last blood sample had been collected. An abbreviated physical examination which included vital signs measurement was performed. Adverse experiences and concomitant medication use, if any, were assessed. Any ongoing adverse experiences and clinically important findings in a patient were followed to the investigator's and/or sponsor's satisfaction before the patient was discharged from the study.
An adverse experience are any undesirable event experienced by a patient or volunteer whether or not considered drug-related by the investigator. An undesirable event can be, but is not limited to, subjective symptoms experienced by a patient or, objective findings such as significant clinical laboratory abnormalities. Adverse experience is considered synonymous with the term “adverse event”.
The investigators report in detail all adverse experiences and symptoms that occurred during or following the course of trial drug administration for up to 2 days. Included in the description was the nature of the sign or symptom; the date of onset; date or resolution (duration); the severity; the relationship to trial treatment or other therapy; the action taken, if any; and the outcome.
Safety Analyses: Results of physical examinations, vital signs, clinical laboratory data were summarized in tabular form and presented by patient number. […]

[4] = Pharmacokinetics of GHB after two consecutive 3 g oral doses in narcoleptic patients; format: in vivo, human; details: for Cmax: po, read-out: maximum GHB concentration (Cmax), mean ±SD
Experimental: The objective of this study was to assess the pharmacokinetics of GHB after oral administration of two consecutive single doses of GHB (3 g/dose; patients generally ingested the first dose of this medication prior to bedtime and the second dose from 2.5 to 4.0 h later) to narcoleptic patients who are maintained on a chronic regimen of GHB.
This pharmacokinetic study was conducted as an open-label, single-center investigation in 6 narcoleptic patients. The study design is summarized as follows:
Before oral administration of the first GHB dose, an indwelling catheter was placed in an arm vein and a baseline blood sample was collected. Each patient then ingested a 3 g dose of GHB before bedtime. Another 3 g GHB dose was administered 4 h after the first dose. Twenty-one sequential blood samples were collected over 12 h (starting at 10 min after the first dose and ending at 8 h after the second dose). Upon completion of the treatment phase, a follow-up physical examination which included the measurement of vital signs was performed on each patient within 48 h after the last blood sample. A detailed description of the trial methodology is presented in Section IV.
All patients were hospitalized from approximately four hours prior to first GHB dosing (around 6 p.m.) until the end of the treatment period (around 10 a.m. the next morning). Patients ate their dinner at the clinical research unit soon after arrival and fasted until breakfast next morning. At least three hours elapsed between the completion of dinner and the administration of the first GHB dose. An indwelling catheter was placed in an arm vein of each patient for blood sampling at approximately 30 min and 1 h before the first GHB dose and a baseline blood sample (5 mL) was collected.
The first GHB dose (3 g) was administered at around 10 p.m. Dosing of individual patients were staggered. The second GHB dose was administered at 4 h after the first GHB dose (i.e. immediately after the 4 h blood sample). The exact dosing times in each patient were recorded on appropriate CRF pages. Blood samples (5 mL each) were collected through the indwelling catheter into heparinized tubes at 0.2, 0.4, 0.6, 0.8, 1, 1.5, 2, 3, 4, 4.2, 4.4, 4.6, […], 5, 5.5, […], 7, 8, 10, and 12 h after the first GHB dose. Blood samples were processed according to the procedures described herein. Patients were monitored for adverse experiences throughout the study according to the specific procedures.
Dose Administration: The investigator or designee prepared the oral solution for dosing within 30 min prior to the first oral administration to individual patients. The contents of one twin-pouch was emptied into a dosing cup to which two ounces of water were added. After replacing the lid of the dosing cup, it was gently shaken to dissolve the GHB and excipient in water. The GHB solution was ingested in its entirety. Likewise, the second GHB dosing solution was prepared in the same manner and was ingesting in its entirety at 4 h after the first GHB dose.
Plasma samples were analyzed for GHB by the Department of Bioanalytical Chemistry (Covance (previously known as Hazelton Corning), Madison, Wis.) A gas chromatographic method with mass selective detection (GC-MSD) was used in the analysis.
Pharmacokinetic Analysis: Pharmacokinetic parameters were determined for individual sets of plasma GHB concentration vs. time data using the non-compartmental routine in WinNonlin Version 1.1. The peak GHB concentrations (Cmax) and the times of their respectively occurrences (tmax) were observed values. Terminal half-life (T1/2) was obtained by log-linear regression analysis of the terminal phase of concentration vs. time curves. The area under the curve (AUCinf) and the area under the first moment curve (AUMCinf) were calculated by the linear trapezoidal rule up to the last determined concentration and included extrapolated areas to time infinity. Apparent oral clearance (CL/F) was calculated as Dose/AUCinf. […]

For `O=C(O)CCCO` [Sodium Oxybate, sodium oxybate], the solubility ([1]; 500 mg/cc with Malic Acid at pH 5.0) was “not soluble”, the solubility ([1]; aqueous medium, 25 °C, pH 4, aqueous buffer, thermodynamic from solid) was 450 mg/mL and the solubility ([1]; aqueous medium, 25 °C, pH 5, aqueous buffer, thermodynamic from solid) was 500 mg/mL. It also gave a solubility ([1]; aqueous medium, 25 °C, pH 6, aqueous buffer, thermodynamic from solid) of 600 mg/mL, a solubility ([1]; aqueous medium, 25 °C, pH 6.8, aqueous buffer, thermodynamic from solid) of 750 mg/mL and a solubility ([1]; aqueous medium, 25 °C, pH 10.3, thermodynamic from solid) of at least 750 mg/mL. The solubility ([1]; aqueous medium, 65 °C, thermodynamic from solid) was 1000 mg/mL, the “Maxium Solubility” value ([1]; pH 4 (HCl), 25°) was 450 mg/cc and the “Maxium Solubility” value ([1]; pH 5 (HCl), 25°) was 500 mg/cc. For the same compound, the “Maxium Solubility” value ([1]; pH 6 (HCl), 25°) was 600 mg/cc, the “Maxium Solubility” value ([1]; pH 6.8 (HCl), 25°) was 750 mg/cc and the “Maxium Solubility” value ([1]; pH 10.3, 25°) was 750 mg/cc +. For the same compound, the “Maxium Solubility” value ([1]; pH (unadjusted), 65° Soluble, 25° Gel) was 1000 mg/cc, the “State of 1000 mg/cc solution” value ([1]; 25°) was “Gel” and the “State of 1000 mg/cc solution” value ([1]; 65°) was “Soluble,”.

For `O=C(O)CCCO` [GHB, gamma-hydroxybutyrate], the solubility ([1]; aqueous medium, 25 °C, thermodynamic from solid) is given as at most 750 mg/mL, the solubility ([1]; aqueous medium, 100 °C, thermodynamic from solid) is given as at least 1000 mg/mL and the apparent oral clearance ([2]; 25 mg/kg dose (Ferrara, 1992)) is given as 8.1 ± 4.8 mL/min/kg. The apparent oral clearance ([2]; dose of 50 mg/kg (Ferrara, 1992)) was 5.3 ± 2.2 mL/min/kg, the “adverse experiences / tolerability” value ([3]; narcoleptic patients, two 3 g oral doses) was “No adverse experiences were reported; also recorded: well tolerated” and the “follow-up physical examination results” value ([3]; screen versus follow-up, per individual patient) was “did not identify any changes attributable to GHB”. For the same compound, the “highest plasma GHB concentration observed in the study” value ([4]; Subject 101 after the second 3 g GHB dose) was 125.0 µg/mL, the “mean observed time to maximum concentration” value ([4]; after the first GHB dose) was 40 ± 6 min and the “mean observed time to maximum concentration” value ([4]; after the second GHB dose) was 36 ± 7 min. For the same compound, the “time by which plasma GHB concentrations were no longer detectable” value ([4]; after the second GHB dose (10 h after the first GHB dose)) was at most 6 h, the Tmax ([4]; human, plasma, oral, 3 g, after dosing (discussion)) was about 40 min and the concentration at 4 h ([4]; human, plasma, oral, 3 g, at h 4 after the first GHB dose, in three of six patients, read-out: residual GHB levels) was about 15 µg/mL. The half-life ([4]; human, plasma, oral, narcoleptic patients, read-out: elimination half-life of GHB) was under 60 min, the half-life ([4]; human, plasma, oral, terminal phase of the second GHB dose, read-out: mean GHB T1/2 (elimination half-life)) was 53 ± 19 min and the Cmax ([4]; human, plasma, 3 g, first 3 g oral GHB dose, 6 narcoleptic patients) was 62.8 ± 27.4 µg/mL. It also gave a Cmax ([4]; human, plasma, 3 g, second 3 g oral GHB dose (4 h after the first)) of 91.2 ± 25.6 µg/mL, an AUC(0-inf) ([4]; human, plasma, two 3 g oral doses 4 h apart, read-out: mean AUCinf (converted)) of 296 µg·h/mL and a CL/F ([4]; human, plasma, two 3 g oral doses 4 h apart, read-out: mean CL/F (apparent oral clearance)) of 4.2 ± 1 mL/min/kg. The MRT inf ([4]; human, plasma, two 3 g oral doses 4 h apart, read-out: mean MRTinf (converted)) was 249 min, the Vd/F ([4]; human, plasma, two 3 g oral doses 4 h apart, read-out: mean Vz/F) was 0.307 ± 0.096 L/kg and the “mean GHB T1/2 (elimination half-life)” value ([4]; terminal phase of the second GHB dose) was about 35 min.
